Each structure is given as a SMILES string. Several values for one entry are separate records, joined by “and”; a condition that tells them apart may be missing. Identical values can stand only once. Toxic doses and inconclusive results are not listed. Peptide text beside a SMILES is read from it. * marks the point of attachment. Trt = c1ccc(C(c2ccccc2)(c2ccccc2)*)cc1; Cbz = O=C(OCc1ccccc1)*; Bz = O=C(c1ccccc1)*

The subject of this assay is P388 leukemia ip, CD2F1 mice, survival T/C. Kind of assay: NCI In Vivo Anticancer Drug Screen. Data for tumor model P388 Leukemia (intraperitoneal) in CD2F1 (CDF1) mice. The note with it: endpoint: median survival time, higher = longer survival. In short, it runs like this: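 Mice carrying the transplanted tumor received test compound or vehicle. Survival was recorded in each group, and the value is the treated-group measurement divided by that of the vehicle-treated control group.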

Setting [1] is: dose: 60.0 mg/kg/injection, schedule: Q01DX005 (ip), vehicle: Klucel (hydroxypropylcellulose) (HPC).
Setting [2] is: dose: 120.0 mg/kg/injection, schedule: Q01DX005 (ip), vehicle: Klucel (hydroxypropylcellulose) (HPC).
[3] abbreviates: dose: 240.0 mg/kg/injection, schedule: Q01DX005 (ip), vehicle: Klucel (hydroxypropylcellulose) (HPC).
[4] abbreviates: dose: 50.0 mg/kg/injection, schedule: Q01DX005 (ip), vehicle: saline with Tween-80.
Where [5] appears, read: dose: 100.0 mg/kg/injection, schedule: Q01DX005 (ip), vehicle: saline with Tween-80.
The mark [6] stands for this setting: dose: 200.0 mg/kg/injection, schedule: Q01DX005 (ip), vehicle: saline with Tween-80.
[7] abbreviates: dose: 25.0 mg/kg/injection, schedule: Q01DX009 (ip), vehicle: saline with Tween-80.
Where [8] appears, read: dose: 50.0 mg/kg/injection, schedule: Q01DX009 (ip), vehicle: saline with Tween-80.
The mark [9] stands for this setting: dose: 100.0 mg/kg/injection, schedule: Q01DX009 (ip), vehicle: saline with Tween-80.
[10] abbreviates: dose: 60.0 mg/kg/injection, schedule: Q01DX005 (ip), vehicle: saline with Tween-80.
Setting [11] is: dose: 120.0 mg/kg/injection, schedule: Q01DX005 (ip), vehicle: saline with Tween-80.
[12] abbreviates: dose: 240.0 mg/kg/injection, schedule: Q01DX005 (ip), vehicle: saline with Tween-80.
[13] abbreviates: dose: 50.0 mg/kg/injection, schedule: Q01DX009 (ip), vehicle: saline.
Where [14] appears, read: dose: 100.0 mg/kg/injection, schedule: Q01DX009 (ip), vehicle: saline.
Setting [15] is: dose: 12.5 mg/kg/injection, schedule: Q01DX009 (ip), vehicle: water.
[16] abbreviates: dose: 25.0 mg/kg/injection, schedule: Q01DX009 (ip), vehicle: water.
Where [17] appears, read: dose: 50.0 mg/kg/injection, schedule: Q01DX009 (ip), vehicle: water.
Where [18] appears, read: dose: 100.0 mg/kg/injection, schedule: Q01DX009 (ip), vehicle: water.

As for `COC(=O)C(CSC(=O)c1ccccc1)NC(=O)CNC(=O)CNC(=O)C(CCCCNC(=O)OCc1ccccc1)NC(=O)CNC(=O)C(CSC(c1ccccc1)(c1ccccc1)c1ccccc1)NC(=O)OCc1ccccc1` (stereo not drawn) (Cbz-C(Trt)GK(Cbz)GGC(Bz)-OMe; configuration not given here), the T/C under setting [1] was 97 % of control, the T/C under setting [2] was 97 % of control and the T/C under setting [3] is 88 % of control.
Turning to `COC(=O)[C@H](C)[C@@H]1CC[C@](C)(CCC2=C(C)CCCC2(C)C)OO1`, the T/C (dose: 4.38 mg/kg/injection, schedule: Q01DX005 (ip), vehicle: saline + Tween-80 + alcohol) was 93 % of control; the T/C (dose: 8.75 mg/kg/injection, schedule: Q01DX005 (ip), vehicle: saline + Tween-80 + alcohol) was 100 % of control; the T/C (dose: 17.5 mg/kg/injection, schedule: Q01DX005 (ip), vehicle: saline + Tween-80 + alcohol) was 94 % of control; the T/C (dose: 35.0 mg/kg/injection, schedule: Q01DX005 (ip), vehicle: saline + Tween-80 + alcohol) is 107 % of control.
Take `CCOC(=O)NN(C(=O)OCC)C(C(C)=O)C(C)=O`: the T/C by setting is: under setting [1], 104 % of control; under setting [2], 101 % of control; under setting [3], 98 % of control.
As for `ClC(Cl)(Cl)C(Cl)(Cl)c1ccc(C(Cl)(Cl)C(Cl)(Cl)Cl)cc1`, the T/C runs as follows: (dose: 132.0 mg/kg/injection, schedule: Q04DX003 (ip), vehicle: saline with Tween-80) 100 % of control; (dose: 200.0 mg/kg/injection, schedule: Q04DX003 (ip), vehicle: saline with Tween-80) 100 % of control; (dose: 300.0 mg/kg/injection, schedule: Q04DX003 (ip), vehicle: saline with Tween-80) 100 % of control.
For `CC(C)(C)OC(=O)NC1CN(OCc2ccccc2)C1=O` (stereo not drawn), the T/C reads like this: under setting [4], 100 % of control; under setting [5], 94 % of control; under setting [6], 89 % of control.
Take `COc1cc(/C=C/c2nnc3c4ccccc4cnn23)cc(OC)c1OC`: the T/C (dose: 12.5 mg/kg/injection, schedule: Q01DX009 (ip), vehicle: saline with Tween-80) was 99 % of control; the T/C under setting [7] is 100 % of control; the T/C under setting [8] was 101 % of control and 91 % of control; the T/C under setting [9] is 93 % of control; the T/C (dose: 200.0 mg/kg/injection, schedule: Q01DX009 (ip), vehicle: saline with Tween-80) was 94 % of control.
As for `C#CC(O)C1CC1` (stereo not drawn), the T/C (dose: 100.0 mg/kg/injection, schedule: Q01DX001 (ip), vehicle: saline + Tween-80 + alcohol) was 101 % of control.
As to `O=C(CCSCCC(=O)N/N=C(\CO)C(O)C(O)C(O)CO)N/N=C(/CO)C(O)C(O)C(O)CO` (stereo not drawn), the T/C was 99 % of control (dose: 50.0 mg/kg/injection, schedule: Q01DX005 (ip), vehicle: suspension in saline); 104 % of control (dose: 100.0 mg/kg/injection, schedule: Q01DX005 (ip), vehicle: suspension in saline); 97 % of control (dose: 200.0 mg/kg/injection, schedule: Q01DX005 (ip), vehicle: suspension in saline).
Turning to `N#CC(C(=O)CCC(=O)NCCc1ccccc1)c1nc2ccccc2s1` (stereo not drawn), the T/C runs as follows: under setting [10], 103 % of control; under setting [11], 100 % of control; under setting [12], 100 % of control.
Turning to `CCCCCCCCCCCCCCCCCC1=NCCN1CCN`, the T/C under setting [7] is 100 % of control; the T/C (dose: 25.0 mg/kg/injection, schedule: Q04DX003 (ip), vehicle: saline with Tween-80) was 100 % of control; the T/C under setting [8] was 104 % of control; the T/C (dose: 50.0 mg/kg/injection, schedule: Q04DX003 (ip), vehicle: saline with Tween-80) is 109 % of control; the T/C under setting [9] is 109 % of control; the T/C (dose: 100.0 mg/kg/injection, schedule: Q04DX003 (ip), vehicle: saline with Tween-80) is 95 % of control.
As for `[O-]/[N+](C1C(Cl)C2CC1C1C=CCC12)=[N+](\[O-])C1C(Cl)C2CC1C1C=CCC12` (stereo not drawn), the T/C runs as follows: (dose: 15.0 mg/kg/injection, schedule: Q01DX005 (ip), vehicle: saline with Tween-80) 95 % of control; (dose: 30.0 mg/kg/injection, schedule: Q01DX005 (ip), vehicle: saline with Tween-80) 92 % of control; under setting [10], 100 % of control and 86 % of control.
With `CCC[CH2][Ge]([CH2]CCC)([CH2]CCC)[S][Ge]([CH2]CCC)([CH2]CCC)[CH2]CCC`, the T/C runs as follows: under setting [13], 91 % of control; under setting [14], 92 % of control; (dose: 200.0 mg/kg/injection, schedule: Q01DX009 (ip), vehicle: saline) 97 % of control.
In the case of `CC(C)CC[NH-].CC(C)CC[NH-].[Cl][Pt+2]([Cl])([Cl])[Cl]`, the T/C under setting [9] was 176 % of control.
With `COc1cc(Cc2nnc(NN=C(C)C)[nH]c2=O)cc(OC)c1OC`, the T/C (dose: 50.0 mg/kg/injection, schedule: Q01DX001 (ip), vehicle: Klucel (hydroxypropylcellulose) (HPC)) is 115 % of control; the T/C (dose: 100.0 mg/kg/injection, schedule: Q01DX001 (ip), vehicle: Klucel (hydroxypropylcellulose) (HPC)) was 98 % of control and 100 % of control; the T/C (dose: 200.0 mg/kg/injection, schedule: Q01DX001 (ip), vehicle: Klucel (hydroxypropylcellulose) (HPC)) is 100 % of control and 124 % of control; the T/C (dose: 400.0 mg/kg/injection, schedule: Q01DX001 (ip), vehicle: Klucel (hydroxypropylcellulose) (HPC)) was 105 % of control and 116 % of control.
On to `O=c1[nH]cc(CS)c(=O)[nH]1`, for which the T/C runs as follows: (dose: 12.5 mg/kg/injection, schedule: Q01DX009 (ip), vehicle: saline) 102 % of control; (dose: 25.0 mg/kg/injection, schedule: Q01DX009 (ip), vehicle: saline) 108 % of control; under setting [13], 100 % of control and 102 % of control; under setting [14], 103 % of control.
For `CCOC(=O)c1cc(CC)[nH]c(=O)c1C#N`, the T/C was 92 % of control (dose: 25.0 mg/kg/injection, schedule: Q01DX005 (ip), vehicle: Klucel (hydroxypropylcellulose) (HPC)); 98 % of control (dose: 50.0 mg/kg/injection, schedule: Q01DX005 (ip), vehicle: Klucel (hydroxypropylcellulose) (HPC)); 100 % of control (dose: 100.0 mg/kg/injection, schedule: Q01DX005 (ip), vehicle: Klucel (hydroxypropylcellulose) (HPC)).
Turning to `COC(=O)/C(C)=N/SC(c1ccccc1)(c1ccccc1)c1ccccc1`, the T/C reads like this: under setting [4], 102 % of control; under setting [5], 104 % of control; under setting [6], 98 % of control.
The like results for `CC(C)(CCN)c1cc(CC(C)(C)C2(C)OCCO2)no1` were, in that order, 113 % of control, 108 % of control and 113 % of control.
Take `NCCNC(c1ccccc1)C(O)c1ccccc1` (stereo not drawn): the T/C (dose: 50.0 mg/kg/injection, schedule: Q04DX002 (ip), vehicle: Klucel (hydroxypropylcellulose) (HPC)) is 102 % of control and the T/C (dose: 100.0 mg/kg/injection, schedule: Q04DX002 (ip), vehicle: Klucel (hydroxypropylcellulose) (HPC)) was 100 % of control.
Consider `CN1c2ccccc2SC12C(=S)N(c1ccccc1)C(=S)N2c1ccccc1` (stereo not drawn), for which the T/C by setting is: (dose: 100.0 mg/kg/injection, schedule: Q04DX002 (ip), vehicle: saline with Tween-80) 98 % of control; (dose: 200.0 mg/kg/injection, schedule: Q04DX002 (ip), vehicle: saline with Tween-80) 90 % of control; (dose: 400.0 mg/kg/injection, schedule: Q04DX002 (ip), vehicle: saline with Tween-80) 86 % of control.
Turning to `Nc1nc(N)c2[nH]c(CNc3ccc(C(=O)O)cc3)nc2n1`, the T/C runs as follows: under setting [10], 89 % of control; under setting [11], 89 % of control; under setting [12], 86 % of control.
With `N#Cc1cccc(CN2CCCNCC2)c1`, the T/C is 94 % of control (dose: 6.25 mg/kg/injection, schedule: Q01DX009 (ip), vehicle: water); 94 % of control under setting [15]; 103 % of control under setting [16]; 109 % of control under setting [17]; 105 % of control under setting [18].
Turning to `COC(=O)C1CC(C(=O)OC)c2nc3ccccc3nc21` (stereo not drawn), the T/C reads like this: under setting [1], 100 % of control; under setting [2], 98 % of control.
In the case of `COc1cc2ccc3cnccc3c2cc1OC`, the T/C under setting [15] was 99 % of control; the T/C under setting [16] is 99 % of control; the T/C under setting [17] is 103 % of control; the T/C under setting [18] was 99 % of control; the T/C (dose: 200.0 mg/kg/injection, schedule: Q01DX009 (ip), vehicle: water) is 113 % of control.

For the origin of these results see PubChem BioAssay AID330 (DTP/NCI, 2004).
